Earlier results, collected in patent US7351710B2, “Preparation of amorphous form of indiplon” (Mai De Ltd., priority 2005, dated 2008).

Row | SMILES | solubility in water (in words) (water) | solubility (in water, crystalline form) [µg/mL]
1 | CC(=O)N(C)c1cccc(-c2ccnc3c(C(=O)c4cccs4)cnn23)c1 [Indiplon, N-Methyl-N-[3-[3-[2-thienylcarbonyl]pyrazolo[1,5-a]pyrimidin-7-yl]phenyl]acetamide] | practically insoluble | 
2 | CC(=O)N(C)c1cccc(-c2ccnc3c(C(=O)c4cccs4)cnn23)c1 [crystalline indiplon, N-Methyl-N-[3-[3-[2-thienylcarbonyl]pyrazolo[1,5-a]pyrimidin-7-yl]phenyl]acetamide] |  | 20 to 30
